Experimental data reported in patent US11952384B2, “Anti-tumor compound and preparation method and use thereof” (DUALITY BIOLOGICS (SUZHOU) CO., LTD., priority 2020, dated 2024).
pIC50: −log10 of the molar value. Where two headings read alike, the source gives them in different places.

How the values were obtained:
JIMT-1 cells = test: Inhibition of in vitro proliferation of tumor cells by compounds (CTG, 6 days); format: cell-based; settings: Table 1, Test Example 2.1, small molecule fragments, 6 days of culture, CTG, read-out: JIMT-1 IC50
Method: (§1) To test the inhibitory activity of the pharmaceutical compounds on the in vitro proliferation of NCI-N87, JIMT-1 and MBA-MB-231 tumor cells. The cells were treated with the compounds at different concentrations in vitro, and after 6 days of culture, the proliferation of cells was detected using the CTG (CellTiter-Glo® Luminescent Cell Viability Assay, Promega, Cat. No. G7558) reagent, and the in vitro activity of the compounds was evaluated according to the IC50 value.
(§2) In the following, the test for the inhibition of the in vitro proliferation of NCI-N87 cells was taken as an example to illustrate the method of the present application for testing the inhibitory activity of the compounds of the present application on the in vitro proliferation of tumor cells. The method was also applicable to, but not limited to, the test for the inhibitory activity on the in vitro proliferation of other tumor cells. • 1. Culturing of cells: NCI-N87 cells were cultured in RPMI-1640 medium containing 10% FBS. • 2. Preparation of cells: NCI-N87 cells in logarithmic phase were taken, washed with PBS once, and digested with 2-3 mL of trypsin for 2-3 min. After the cells were digested completely, 10-15 mL of cell culture was added to elute the digested cells. The eluate was centrifuged at 1000 rpm for 5 min, and the supernatant was discarded. The resulting cells were resuspended in 10-20 mL of cell culture to obtain a single cell suspension. • 3. Cell plating: the NCI-N87 single cell suspension was mixed well and adjusted to a viable cell density of 6×10^4 cells/mL with cell culture. The cell suspension with the adjusted density was mixed well and added to a 96-well cell culture plate at 50 μL/well. The culture plate was incubated in an incubator for 18 h (37° C., 5% CO2). • 4. Preparation of compounds: the compounds were dissolved in DMSO to obtain stock solutions at an initial concentration of 10 mM. There were 8 concentrations in total for the small molecule compounds: 300 nM, 100 nM, 30 nM, 10 nM, 3 nM, 1 nM, 0.3 nM, and 0.1 nM. • 5. Sample adding: the prepared samples to be detected at different concentrations were added to the culture plate, and two duplicate wells were set for each sample. The culture plate was incubated in an incubator for 6 days (37° C., 5% CO2). • 6. Color developing: the 96-well cell culture plate was taken out, added with the CTG reagent at 50 μL/well, and incubated at room temperature for 10 min. • 7. Plate reading: the 96-well cell culture plate was taken out, placed in a microplate reader, and measured for the chemiluminescence using the microplate reader. Data Analysis
(§3) Data were processed and analyzed using Microsoft Excel and Graphpad Prism 5.
(§4) To test the inhibitory activity of the pharmaceutical compounds on the in vitro proliferation of NCI-N87, JIMT-1 and MBA-MB-231 tumor cells. The cells were treated with compounds at different concentrations in vitro, and after 6 days of culture, the proliferation of cells was detected using CTG (CellTiter-Glo® Luminescent Cell Viability Assay, Promega, Cat. No. G7558) reagents, and the in vitro activity of the compounds was evaluated according to the IC50 value. • 1. Culturing of cells: NCI-N87/JIMT-1/MBA-MB-231 cells were cultured in RPMI-1640 medium containing 10% FBS. • 2. Preparation of cells: NCI-N87/JIMT-1/MBA-MB-231 cells in logarithmic phase were taken, washed with PBS once, and digested with 2-3 mL of trypsin for 2-3 min. After the cells were digested completely, 10-15 mL of cell culture was added to elute the digested cells. The eluate was centrifuged at 1000 rpm for 5 min, and the supernatant was discarded. The resulting cells were resuspended in 10-20 mL of cell culture to obtain a single cell suspension. • 3. Cell plating: the NCI-N87/JIMT-1/MBA-MB-231 single cell suspension was mixed well and adjusted to a viable cell density of 6×10^4 cells/mL with cell culture. […]

NCI-N87 cells = test: as above; format: cell-based; settings: small molecule fragments, 6 days of culture, CTG, read-out: NCI-N87 IC50
Method: as §1, §2, §3, §4

P-gp = molecular target: T1, P-gp (Homo sapiens, UniProt P08183); test: Study on transporter substrates in Caco-2 cell model; format: in vitro ADME; settings: Caco-2
T1 construct: endogenous in cells; host or cells: Caco-2
Method: The resistance of each well was recorded. […] 2. […] The plate was vortexed for 10 min. The samples were centrifuged. […] HBSS was added to the basolateral compartment. […] 3. Data Analysis
Data were calculated using Microsoft Excel.

BCRP [1] = molecular target: T2, BCRP (Homo sapiens, UniProt Q9UNQ0); settings: Caco-2
T2 sequence (Q9UNQ0 1-655): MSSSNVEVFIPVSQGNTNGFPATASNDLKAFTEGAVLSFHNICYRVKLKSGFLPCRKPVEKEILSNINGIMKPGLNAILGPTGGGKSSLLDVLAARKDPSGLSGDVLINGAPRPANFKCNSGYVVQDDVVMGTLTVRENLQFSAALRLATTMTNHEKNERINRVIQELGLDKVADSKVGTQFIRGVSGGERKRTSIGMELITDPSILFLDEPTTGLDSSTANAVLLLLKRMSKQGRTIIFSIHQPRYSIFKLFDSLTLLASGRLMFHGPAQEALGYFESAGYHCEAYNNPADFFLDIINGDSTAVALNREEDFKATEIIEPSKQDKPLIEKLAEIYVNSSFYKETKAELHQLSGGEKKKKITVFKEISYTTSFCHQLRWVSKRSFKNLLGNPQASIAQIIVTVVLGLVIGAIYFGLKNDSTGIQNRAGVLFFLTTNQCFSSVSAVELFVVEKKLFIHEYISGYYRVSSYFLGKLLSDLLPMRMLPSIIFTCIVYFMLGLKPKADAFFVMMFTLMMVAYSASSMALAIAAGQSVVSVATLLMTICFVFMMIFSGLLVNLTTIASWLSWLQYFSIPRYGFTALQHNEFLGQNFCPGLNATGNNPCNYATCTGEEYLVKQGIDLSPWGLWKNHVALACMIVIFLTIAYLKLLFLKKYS
Method: (§5) To investigate whether the compounds of the present invention is a substrate for efflux transporters P-gp and BCRP in a Caco-2 cell model, thereby providing preclinical basis for analyzing the drug-drug interaction in pharmacokinetics.
(§6) • 1) Cell culture medium was added to each well of the Transwell. The HTS Transwell plate was incubated under conditions of 37° C. and 5% CO2 for 1 h prior to cell inoculation. • 2) Caco-2 cells were diluted with culture medium and the cell suspension was dispensed into filter wells of the 96-well HTS Transwell plate. […] The cell culture medium was changed periodically. • 3) Monolayer cell resistance was measured using the Millicell Epithelial Volt-Ohm detection system. The resistance of each well was recorded. After all wells were measured, the Transwell plate was put back into the incubator. TEER of each well was calculated according to the formula. The TEER value of each well should be greater than 230 ohm·cm^2. […] Preparation for Transporter Test • 1) The Caco-2 plate was taken out from the incubator. The monolayer cells were washed with pre-heated HBSS twice. The plate was then incubated at 37° C. for 30 min. • 2) Stock solutions of the compounds were prepared in DMSO and diluted with HBSS to obtain working solutions. Digoxin was used as a reference substrate for P-gp and rosuvastatin was used as a reference substrate for BCRP. Propranolol was used as a high permeability marker. • 3) The working solution (without inhibitor) was added to the Transwell insert (apical compartment) to determine the rate of drug transport in the apical to basolateral direction. The transfer buffer was added to the wells in the receiver plate (basolateral compartment). The working solution (without inhibitor) was added to the receiver plate wells (basolateral compartment) to determine the rate of drug transport in the basolateral to apical direction. The Transwell insert (apical compartment) was filled with the transport buffer. PSC833 was added to the apical and basolateral compartments to determine the rate of drug transport in the presence of P-gp inhibitors. • 4) The sample was transferred from the working solution to the quenching solution, and a sample with a time of 0 was prepared. The Transwell plate was incubated under conditions of 37° C. and 5% CO2 for 2 h. • 5) At the end of the transport cycle, the samples were transferred from the apical and basolateral wells into a new 96-well plate. Cold acetonitrile or methanol containing the appropriate internal standard (IS) was added to each well of the plate. The plate was vortexed for 10 min. The samples were centrifuged. The supernatant of an aliquot was mixed with an appropriate amount of ultrapure water (depending on the LC-MS/MS signal response and peak shape) prior to the LC-MS/MS analysis. • 6) The stock solution of lucifer yellow in DMSO was prepared and diluted with HBSS to determine the amount of lucifer yellow leakage after a 2-hour transport period. The lucifer yellow solution was added to the apical compartment. HBSS was added to the basolateral compartment. The plate was incubated at 37° C. for 30 min, and a certain amount of the solution was directly taken from the apical and basolateral wells and transferred to a new 96-well plate. The lucifer yellow fluorescence was measured in a fluorescence plate reader with 485 nm excitation and 530 nm emission (to monitor monolayer integrity).
(§7) Data were calculated using Microsoft Excel. The percentage of the compound remaining at each time point was estimated by determining the peak area ratio from the extracted ion chromatogram.
(§8) For drug transport analysis in the Caco-2 cell model, the apparent permeability coefficient (Papp) can be calculated according to the following formula, in cm/s:
(§9) [formula] • wherein the concentration C is in nM, the volume V is in μL, the time T is in s, and the area S is in cm^2.
(§10) The recovery rate is calculated according to the following formula:

BCRP [2] = molecular target: T2, BCRP; test: in vitro
Method: as §5, §6, §7, §8, §9, §10

BCRP [3] = molecular target: T2, BCRP; test: Study on transporter substrates in Caco-2 cell model; settings: human, Caco-2
Method: as §5, §6, §7, §8, §9, §10

MDA-MB-231 cells = test: Inhibition of in vitro proliferation of tumor cells by compounds (CTG, 6 days); format: cell-based; settings: Homo sapiens, MDA-MB-231, 144 h, Table 3, Test Example 2.3; small molecule fragments; 6 days of culture, CTG; read-out: MDA-MB-231 IC50
Method: To test the inhibitory activity of the pharmaceutical compounds on the in vitro proliferation of NCI-N87, JIMT-1 and MBA-MB-231 tumor cells. The cells were treated with compounds at different concentrations in vitro, and after 6 days of culture, the proliferation of cells was detected using CTG (CellTiter-Glo® Luminescent Cell Viability Assay, Promega, Cat. No. G7558) reagents, and the in vitro activity of the compounds was evaluated according to the IC50 value. • 1. Culturing of cells: NCI-N87/JIMT-1/MBA-MB-231 cells were cultured in RPMI-1640 medium containing 10% FBS. • 2. Preparation of cells: NCI-N87/JIMT-1/MBA-MB-231 cells in logarithmic phase were taken, washed with PBS once, and digested with 2-3 mL of trypsin for 2-3 min. After the cells were digested completely, 10-15 mL of cell culture was added to elute the digested cells. The eluate was centrifuged at 1000 rpm for 5 min, and the supernatant was discarded. The resulting cells were resuspended in 10-20 mL of cell culture to obtain a single cell suspension. • 3. Cell plating: the NCI-N87/JIMT-1/MBA-MB-231 single cell suspension was mixed well and adjusted to a viable cell density of 6×10^4 cells/mL with cell culture. The cell suspension with the adjusted density was mixed well and added to a 96-well cell culture plate at 50 μL/well. The culture plate was incubated in an incubator for 18 h (37° C., 5% CO2). • 4. Preparation of compounds: the compounds were dissolved in DMSO to obtain stock solutions at an initial concentration of 10 mM. There were 8 concentrations in total for the small molecule compounds: 300 nM, 100 nM, 30 nM, 10 nM, 3 nM, 1 nM, 0.3 nM, and 0.1 nM. • 5. Sample adding: the prepared samples to be detected at different concentrations were added to the culture plate, and two duplicate wells were set for each sample. The culture plate was incubated in an incubator for 6 days (37° C., 5% CO2). • 6. Color developing: the 96-well cell culture plate was taken out, added with the CTG reagent at 50 μL/well, and incubated at room temperature for 10 min. • 7. Plate reading: the 96-well cell culture plate was taken out, placed in a microplate reader, and measured for the chemiluminescence using the microplate reader. Data analysis: data were processed and analyzed using Microsoft Excel and Graphpad Prism 5.

Colo205 cells = test: as above; format: cell-based; settings: Homo sapiens, COLO 205, 144 h, Table 4, Test Example 2.4, small molecule fragments, 6 days of culture
Method: To test the inhibitory activity of the pharmaceutical compounds on the in vitro proliferation of NCI-N87 and Colo205 tumor cells. The cells were treated with compounds at different concentrations in vitro, and after 6 days of culture, the proliferation of cells was detected using CTG (CellTiter-Glo® Luminescent Cell Viability Assay, Promega, Cat. No. G7558) reagents, and the in vitro activity of the compounds was evaluated according to the IC50 value. • 1. Culturing of cells: NCI-N87/Colo205 cells were cultured in RPMI-1640 medium containing 10% FBS. • 2. Preparation of cells: NCI-N87/Colo205 cells in logarithmic phase were taken, washed with PBS once, and digested with 2-3 mL of trypsin for 2-3 min. After the cells were digested completely, 10-15 mL of cell culture was added to elute the digested cells. The eluate was centrifuged at 1000 rpm for 5 min, and the supernatant was discarded. […] Sample adding: the prepared samples to be detected at different concentrations were added to the culture plate, and two duplicate wells were set for each sample. […] Plate reading: the 96-well cell culture plate was taken out, placed in a microplate reader, and measured for the chemiluminescence using the microplate reader. Data analysis: data were processed and analyzed using Microsoft Excel and Graphpad Prism 5.

T1 sequence (P08183 whole entry): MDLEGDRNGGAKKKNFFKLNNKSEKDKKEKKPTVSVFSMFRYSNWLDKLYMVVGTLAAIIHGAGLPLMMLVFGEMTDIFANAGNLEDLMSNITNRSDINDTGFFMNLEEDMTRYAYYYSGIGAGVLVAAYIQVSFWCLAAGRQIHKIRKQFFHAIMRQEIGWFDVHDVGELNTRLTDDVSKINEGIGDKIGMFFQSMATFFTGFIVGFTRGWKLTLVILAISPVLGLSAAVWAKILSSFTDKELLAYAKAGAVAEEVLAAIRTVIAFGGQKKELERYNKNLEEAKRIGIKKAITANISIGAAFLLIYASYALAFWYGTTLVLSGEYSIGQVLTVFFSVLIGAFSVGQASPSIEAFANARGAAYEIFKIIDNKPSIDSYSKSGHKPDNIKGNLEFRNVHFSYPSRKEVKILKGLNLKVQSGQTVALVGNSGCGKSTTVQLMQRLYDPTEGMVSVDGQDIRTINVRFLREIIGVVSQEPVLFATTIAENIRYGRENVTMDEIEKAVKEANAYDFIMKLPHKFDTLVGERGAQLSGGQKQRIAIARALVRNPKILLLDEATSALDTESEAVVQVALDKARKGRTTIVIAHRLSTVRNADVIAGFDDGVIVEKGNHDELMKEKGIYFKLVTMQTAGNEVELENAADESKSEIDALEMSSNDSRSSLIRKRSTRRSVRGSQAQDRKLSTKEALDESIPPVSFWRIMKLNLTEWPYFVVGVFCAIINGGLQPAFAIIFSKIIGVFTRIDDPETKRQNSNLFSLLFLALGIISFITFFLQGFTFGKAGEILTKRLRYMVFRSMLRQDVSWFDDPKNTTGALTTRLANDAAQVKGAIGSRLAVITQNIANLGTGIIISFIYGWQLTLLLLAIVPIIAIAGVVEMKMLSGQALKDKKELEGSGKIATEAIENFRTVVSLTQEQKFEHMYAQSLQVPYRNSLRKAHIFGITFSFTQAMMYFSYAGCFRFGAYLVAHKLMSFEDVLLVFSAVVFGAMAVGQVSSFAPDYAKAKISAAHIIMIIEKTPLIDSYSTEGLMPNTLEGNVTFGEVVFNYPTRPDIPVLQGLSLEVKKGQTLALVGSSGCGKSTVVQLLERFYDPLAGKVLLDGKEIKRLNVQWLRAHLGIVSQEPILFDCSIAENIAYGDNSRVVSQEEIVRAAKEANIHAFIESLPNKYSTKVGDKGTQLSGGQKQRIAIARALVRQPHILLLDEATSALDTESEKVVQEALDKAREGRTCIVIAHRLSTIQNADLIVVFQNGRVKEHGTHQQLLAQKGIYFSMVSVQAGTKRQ

Row | Compound | pIC50 (JIMT-1 cells; Homo sapiens, JIMT-1, 144 h) | pIC50 (JIMT-1 cells) | pIC50 (NCI-N87 cells; Homo sapiens, NCI-N87, 144 h, Table 1, Test Example 2.1) | pIC50 (NCI-N87 cells; Table 1, Test Example 2.1) | P-gp substrate (P-gp) | Papp (A-B) (10^−6, cm/s) (BCRP [1]) | Papp (B-A) (10^−6, cm/s) (BCRP [1]) | Papp A→B at 2 h (BCRP [2]; Caco-2, Papp (A-B) (10^−6, cm/s)) [×10⁻⁶ cm/s] | Papp B→A at 2 h (BCRP [2]; Caco-2, Papp (B-A) (10^−6, cm/s)) [×10⁻⁶ cm/s] | efflux ratio at 2 h (BCRP [3]; Caco-2, Efflux ratio, KO143 −) | recovery at 2 h (BCRP [3]; Caco-2, Recovery rate (%) AP-BL, KO143 −) [%] | recovery at 2 h (BCRP [3]; Caco-2, Recovery rate (%) BL-AP, KO143 −) [%] | recovery at 2 h (BCRP [3]; Caco-2, with KO143 (concentration not stated), Recovery rate (%) AP-BL, KO143 +) [%] | recovery at 2 h (BCRP [3]; Caco-2, with KO143 (concentration not stated), Recovery rate (%) BL-AP, KO143 +) [%] | pIC50 (NCI-N87 cells; Homo sapiens, NCI-N87, 144 h, Table 4, Test Example 2.4) | pIC50 (MDA-MB-231 cells) | pIC50 (Colo205 cells)
1 | CC[C@@]1(O)C(=O)OCc2c1cc1n(c2=O)Cc2c-1nc1cc(F)c(C)c3c1c2[C@@H](N1CCC(O)C1=O)CC3 (some centres unmarked) [P-I-1] | 7.63 | 7.66 | 7.01 | 7.21 | neither transporter P-gp substrates nor transporter BCRP substrates | 0.21 10^−6, cm/s | 4.94 10^−6, cm/s | 0.13 | 4.06 | 32.4 | 80.5 | 76.1 | 81.5 | 80.3 | – | – | –
2 | CC[C@@]1(O)C(=O)OCc2c1cc1n(c2=O)Cc2c-1nc1cc(F)c(C)c3c1c2[C@@H](NC(=O)C[C@H](C)O)CC3 [P-III-30, (S)-N-((1S,9S)-9-ethyl-5-fluoro-9-hydroxy-4-methyl-10,13-dioxo-2,3,9,10,13,15-hexahydro-1H,12H-benzo[de]pyrano[3′,4′:6,7]indolizino[1,2-b]quinolin-1-yl)-3-hydroxybutanamide] | – | – | – | – | – | – | – | – | – | – | – | – | – | – | 8.52 | 7.55 | 8.05
